Legend:
[1] = test system: testosterone-induced AGA mouse model; assay: In vivo hair regrowth efficacy; parameters: species or system C57BL/6J mice; settings: finasteride 1 mg/kg oral; for hair regrowth (coverage of the telogen area) / telogen-to-anagen conversion (telogen area transitioning): day 6; for hair regrowth (coverage of the telogen area) / telogen-to-anagen conversion (telogen area transitioning) / anagen area / hair regrowth / increase in hair follicle length compared to the untreated group / increase in hair weight compared to the untreated group: minoxidil 1% topical; for telogen-to-anagen conversion (telogen area transitioning): once daily
Procedure: On day 6, dorsal hair was removed from all mice. All mice were anesthetized using 3% isoflurane in 100% oxygen at a flow rate of 0.8 L/min, and the suppression of deep pedal reflexes was confirmed in the mice. Then, the desired dorsal region was shaved using electric clippers, followed by the application of rosin wax. After 2 min, the rosin wax was removed with the help of adhesive tape. The application of rosin wax was repeated one more time to completely remove the few remaining hairs.
Testosterone-treated mice were then randomly assigned to six groups (n = 6 per group). The first group served as the negative control and only received the vehicle.
Hair regrowth was visually monitored and photographed on days 0, 3, 6, 9, 12, and 15. Regrowth progression was quantitatively assessed using the software ImageJ (version 1.54p; National Institutes of Health, Bethesda, MD, USA) by measuring the areas corresponding to telogen-phase skin (pink), anagen transition zones (black), and fully covered hair regions. On day 15, the regrown dorsal hair was trimmed and weighed using an analytical balance to assess total hair mass. To evaluate hair follicle length, mice were first anesthetized using 3% isoflurane in 100% oxygen at a flow rate of 0.8 L/min to minimize movement and distress. The dorsal skin area was then cleaned with 70% ethanol to prevent contamination. Using sterile fine-tipped forceps, approximately 5–20 hairs were grasped close to the skin surface and swiftly plucked in the direction of hair growth to minimize follicular damage. Only hair shafts with intact follicular bulbs were selected for analysis. This procedure was repeated at three distinct dorsal sites per animal to obtain a representative sampling of hair regrowth. Finally, the lengths of selected hair follicles were measured microscopically.

[2] = test system: DHT; assay: Plasma DHT level (ELISA); assay type: in vivo, C57BL/6J mice; settings: AGA mice; minoxidil 1% topical, finasteride 1 mg/kg oral
Procedure: Blood samples were collected in heparinized tubes and centrifuged at 13,000× g for 5 min at 4 °C to isolate plasma. The plasma was stored at −80 °C until analysis for testosterone and DHT concentrations.
Plasma samples collected after the final dose of once-daily treatments were used to quantify serum testosterone and DHT levels using commercial ELISA kits: the Mouse Testosterone ELISA Kit and Mouse DHT ELISA Kit (LifeSpan BioSciences, Inc., Seattle, WA, USA). All assays were conducted following the manufacturer’s protocols.

[3] = test system: Akr1c21; assay: Western blot of liver tissue; assay type: in vivo, C57BL/6J mice; settings: 15 days post-treatment, minoxidil 1% topical, finasteride 1 mg/kg oral
Procedure: (§1) To assess protein expression levels in skin and liver tissues, samples were lysed using M-PER^TM Mammalian Protein Extraction Reagent (Thermo Fisher Scientific) supplemented with a 1× working concentration of Xpert Protease Inhibitor Cocktail Solution (GenDEPOT, Barker, TX, USA), which included 50 μM PMSF, 10 μM Pepstatin A, 20 μM Leupeptin, 100 μM Benzamidine, and 50 μM Bestatin. The lysates were incubated on ice for 30 min and centrifuged at 12,000× g for 10 min at 4 °C to remove debris. The supernatants were collected, and total protein concentrations were determined using the Pierce^TM BCA Protein Assay Kit (Thermo Fisher Scientific).
(§2) Equal amounts of protein (20–30 μg) were loaded onto 10% SDS–polyacrylamide gels and electrophoresed using a Bio-Rad Mini-PROTEAN Tetra System with the Tris–Glycine–SDS running buffer. A pre-stained molecular weight marker (Precision Plus Protein^TM Dual Color Standards, Bio-Rad) was used as a reference. Proteins were then transferred to PVDF membranes (Immobilon®-P, Millipore, Burlington, MA, USA) using the wet transfer method with the Tris–Glycine buffer containing 20% methanol at 0.2 A for 120 min at 4 °C.
(§3) Membranes were blocked with 5% skim milk in TBST buffer (20 mM Tris–HCl, 150 mM NaCl, 0.2% Tween 20, pH 7.4) for 1 h at room temperature and incubated overnight at 4 °C with one of the following primary antibodies diluted at 1:1000: anti-HSP90 (Santa Cruz Biotechnology, sc-13119, Dallas, TX, USA), anti-β-catenin (Cell Signaling Technology, #8480S, Danvers, MA, USA), anti-Lef-1 (Cell Signaling Technology, #2230S, Danvers, MA, USA), anti-Akr1c21 (Invitrogen, PA5-36572, Carlsbad, CA, USA), or anti-Dhrs9 (MyBioSource, MBS9125625, San Diego, CA, USA). Each antibody was applied to separate membranes to avoid cross-reactivity and ensure target specificity.
(§4) After primary antibody incubation, membranes were washed four times for 10 min each with TBST at 50 rpm on a shaker, followed by incubation with HRP-conjugated secondary antibodies (Thermo Fisher Scientific) diluted 1:3000 for 1 h at room temperature. The membranes were then washed three times for 5 min each with TBST under the same conditions. Protein bands were visualized using the enhanced chemiluminescence (ECL) reagent (Bio-Rad) and imaged using the iBright^TM CL1500 Imaging System (Thermo Fisher Scientific). Densitometric analysis was performed using the software ImageJ (NIH), and band intensities were normalized to HSP90 expression to ensure consistent protein quantification across all samples.

[4] = test system: Dhrs9; assay: Western blot of liver tissue; assay type: in vivo, C57BL/6J mice; settings: 15 days post-treatment, minoxidil 1% topical, finasteride 1 mg/kg oral
Procedure: as §1, §2, §3, §4

[5] = test system: Lef-1; assay: Western blot of dorsal skin; assay type: in vivo, C57BL/6J mice; settings: 15 days post-treatment; minoxidil 1% topical, finasteride 1 mg/kg oral; neither significant
Procedure: as §1, §2, §3, §4

[6] = test system: β-catenin; assay: Western blot of dorsal skin; assay type: in vivo, C57BL/6J mice; settings: 15 days post-treatment; minoxidil 1% topical, finasteride 1 mg/kg oral
Procedure: as §1, §2, §3, §4

[7] = test system: liver tissue; assay: Safety observation and liver H&E histology after 15-day treatment; assay type: in vivo, C57BL/6J mice; settings: mice, oral BSE or finasteride
[8] = test system: HDP cells; assay: In vitro cell proliferation assay (WST-1); assay type: cell-based, human
[9] = test system: HDP cells; assay: In vitro scratch wound recovery assay; assay type: cell-based, human
Procedure: No. BA-045855; Sartorius AG, […], Germany). […] Sartorius AG), following the manufacturer's instructions. Detached cells were removed by washing twice with PBS (pH 7.4). […] All treatments were performed in triplicate, including a vehicle control. […] Wound closure was quantified using the Incucyte® Scratch Wound Analysis Software Module, which calculates relative wound density (%) by comparing cell density within the wound area to that of the surrounding monolayer, providing an objective measure of cell migration and proliferation over time.

[10] = test system: HaCaT keratinocytes; assay: In vitro cell proliferation assay (WST-1)
[11] = test system: CCD-986sk dermal fibroblasts; assay: In vitro cell proliferation assay (WST-1)

Structure (SMILES) | hair regrowth (coverage of the telogen area) [1] [%] | telogen-to-anagen conversion (telogen area transitioning) [1] [%] | anagen area ([1]; day 9) [%] | hair regrowth ([1]; day 9) [%] | hair regrowth ([1]; day 15) [%] | increase in hair follicle length compared to the untreated group ([1]; day 15) [fold] | increase in hair weight compared to the untreated group ([1]; day 15) [%] | reduction of plasma DHT compared to the untreated control [2] | hepatic Akr1c21 protein expression [3] | hepatic Dhrs9 protein expression [4] | Lef-1 expression in dorsal skin [5] | β-catenin expression in dorsal skin [6] | also measured
CC(C)(C)NC(=O)[C@H]1CC[C@H]2[C@@H]3CC[C@H]4NC(=O)C=C[C@]4(C)[C@H]3CC[C@]12C [finasteride] | 7.76 | 85.8 | 93.1 | 54.2 | 99.0 | 3.00 | 165 | 2.38 fold | markedly upregulated | markedly upregulated | no such trend | significantly restored | telogen area ([1]; day 9): 6.94%; physical abnormalities during treatment [7]: no physical abnormalities
Nc1cc(N2CCCCC2)nc(N)[n+]1[O-] [minoxidil] | 0.7 | 65.0 | 69.8 | 4.79 | 95.0 | 2.24 | 82.5 | no detectable effect | no significant effect | no significant effect | positive trend | significantly restored | concentration above which proliferation markedly declined [8]: above 10 µg/mL; scratch wound closure ([9]; 0.1 µg/mL, 16 h): 68.8%; scratch wound closure ([9]; 0.1 µg/mL, 20 h): 77.7%; scratch wound closure ([9]; 0.1 µg/mL, 24 h): 94.7%; scratch wound closure ([9]; 1 µg/mL, 16 h): 49.2%; scratch wound closure ([9]; 25 µg/mL, 16 h): 29.2%; concentration above which cytotoxic effects (decreased cell viability) were seen [10]: above 10 µg/mL; concentration at which proliferation decreased (dose-dependent cytotoxicity) [11]: ≥ 10 µg/mL; increase in cell proliferation ([11]; 0.5 µg/mL): 184%; increase in cell proliferation ([11]; 1 µg/mL): 173%; proliferation at lower concentrations ([11]; 0.01–0.1 µg/mL): significantly enhanced proliferation

— PMC12347391, “Sulforaphane-Rich Broccoli Sprout Extract Promotes Hair Regrowth in an Androgenetic Alopecia Mouse Model via Enhanced Dihydrotestosterone Metabolism” (International Journal of Molecular Sciences, 2025)
